Format in all cases: cell-based, Pseudomonas aeruginosa
Assay [1] has as its system carbapenem-resistant P. aeruginosa strains. The experiment in a line: Resensitization of carbapenem-resistant strains, combinations with imipenem or meropenem (Tables 18-22). How it is done:
Such resensitization may be determined by combining the present lysins or lysin-AMP polypeptide constructs with an antibiotic in a checkerboard assay as described herein. Antibiotic-resistant bacteria, such as carbapenem-resistant P. aeruginosa, are added to the lysin or lysin-AMP polypeptide construct combination. […] See Clinical and Laboratory Standards Institute (CLSI), CLSI. […] M100 Performance Standards for Antimicrobial Susceptibility Testing; 29th Edition. Clinical and Laboratory Standards Institute, Wayne, Pa., which is herein incorporated by reference in its entirety.
Up to seven carbapenem-resistant isolates were assessed. […] See Clinical and Laboratory Standards Institute (CLSI), CLSI. […] M100 Performance Standards for Antimicrobial Susceptibility Testing; 29th Edition. Clinical and Laboratory Standards Institute, Wayne, Pa.

The subject of assay [2] is P. aeruginosa. The experiment in a line: MIC, modified CLSI broth microdilution in CAA medium without or with […] human serum (Table 4). On CAA/HuS MIC: CAA supplemented with 2.5% human serum. Particulars: for CAA MIC: CAA medium, no human serum; for CAA/HuS MIC: CAA supplemented with […] human serum; for effect of the structural modification on activity (as assessed by MIC) versus the parent lysin: CAA with and without human serum, parent GN316 or GN37. The source says:
2015. […] Clinical and Laboratory Standards Institute, Wayne, Pa.

For assay [3], the system named is P. aeruginosa strain WC-453. The experiment in a line: Time-kill assay in HEPES or CAA with 25% human serum (Tables 7, 8). Particulars: lysin 10 μg/ml, WC-453; for HEPES (Log10 CFU/mL), 1 hr / HEPES (Log10 CFU/mL), 3 hr: 25 mM HEPES pH 7.4; for CAA/HuS (Log10 CFU/mL), 1 hr / CAA/HuS (Log10 CFU/mL), 3 hr: CAA + 25% human serum. Here is the method:
Exponential phase bacteria were then pelleted and resuspended in 1/5 culture volume of 25 mM HEPES, pH 7.4 before a final adjustment to an optical density corresponding to a McFarland value of 0.5. […] All treatments were incubated at 37° C. with aeration. At time points before the addition of lysin (or buffer control) and at 1 hour and 3 hours intervals thereafter, culture samples were removed for quantitative plating on CAA agar plates.

Assay [4] concerns carbepenam-resistant clinical isolate WC-453. The experiment in a line: MIC in CAA without or with 25% human serum (Table 5). The arrangement: CAA MIC: unit not given here. How it is done:
MIC values were determined using a modification of the standard broth microdilution reference method defined by the Clinical and Laboratory Standards Institute (CLSI), CLSI. […] Methods for Dilution Antimicrobial Susceptibility Tests for Bacteria That Grow Aerobically; Approved Standard-10th Edition. Clinical and Laboratory Standards Institute, Wayne, Pa.

[5] abbreviates: in combination with GN121, isolate PA19.
Setting [6] is: in combination with GN121, isolate PA20.
[7] abbreviates: in combination with GN121, isolate PA21.
Setting [8] is: in combination with GN121, isolate PA22.
Setting [9] is: in combination with GN121, isolate PA23.
Where [10] appears, read: in combination with GN121, isolate PA24.
Where [11] appears, read: in combination with GN123, isolate PA19.
[12] abbreviates: in combination with GN123, isolate PA20.
[13] abbreviates: in combination with GN123, isolate PA21.
Where [14] appears, read: in combination with GN123, isolate PA22.
The mark [15] stands for this setting: in combination with GN123, isolate PA23.
[16] abbreviates: in combination with GN123, isolate PA24.
Where [17] appears, read: in combination with GN123, isolate WC-452.

Turning to `C[C@@H](O)[C@H]1C(=O)N2C(C(=O)O)=C(SCCN=CN)C[C@H]12` [Imipenem, imipenem, reference compound], the “antibiotic MIC, Combination” value in assay [1] (setting [5]) was found to be 1 µg/mL; in assay [1] (setting [6]) it was 0.5 µg/mL; in assay [1] (setting [7]) it was 1 µg/mL; in assay [1] (setting [8]), 2 µg/mL; in assay [1] (setting [9]), 0.125 µg/mL; in assay [1] (setting [10]), 1 µg/mL. For the same molecule, the “antibiotic MIC, Combination” value came to 0.5 µg/mL in assay [1] (setting [11]); 1 µg/mL in assay [1] (setting [12]); 0.5 µg/mL in assay [1] (setting [13]); 2 µg/mL in assay [1] (setting [14]); 0.25 µg/mL in assay [1] (setting [15]); 2 µg/mL in assay [1] (setting [16]). For the same molecule, in assay [1] (setting [17]), the “antibiotic MIC, Combination” value was determined as 1 µg/mL. The “carbapenem susceptibility class, Combination” value in assay [1] (setting [5]), in assay [1] (setting [6]), in assay [1] (setting [7]), in assay [1] (setting [8]), in assay [1] (setting [9]) and in assay [1] (setting [10]) was “(S) ((S) = sensitive)” in each case. In addition, the “carbapenem susceptibility class, Combination” value in assay [1] (setting [11]), in assay [1] (setting [12]), in assay [1] (setting [13]), in assay [1] (setting [14]), in assay [1] (setting [15]) and in assay [1] (setting [16]) was “(S) ((S) = sensitive)” throughout. Also, the “carbapenem susceptibility class, Combination” value in assay [1] (setting [17]) is reported as “(S) ((S) = sensitive)”; in assay [1] (in combination with GN351, vs. WC-452), “(S) ((S) = sensitive)”; in assay [1] (in combination with GN370, vs. WC-452) it was “(S) ((S) = sensitive)”; in assay [1] (in combination with GN428, vs. WC-452), “(S) ((S) = sensitive)”. Moreover, the “carbapenem susceptibility class, antibiotic Alone” value in assay [1] (isolate PA19), in assay [1] (isolate PA20), in assay [1] (isolate PA21), in assay [1] (isolate PA22), in assay [1] (isolate PA23) and in assay [1] (isolate PA24) was “R ((R) = resistant)” in each case. Further, the “carbapenem susceptibility class, antibiotic Alone” value in assay [1] (isolate WC-452) was “R ((R) = resistant)”.

B1: GN239: lysin-AMP construct: IGEM linker and RI18 peptide C-terminal to GN37 lysin (SEQ ID NO: 14) (protein)
chain: MTYTLSKRSLDNLKGVHPDLVAVVHRAIQLTPVDFAVIEGLRSVSRQKELVAAGASKTMNSRHLTGHAVDLAAYVNGIRWDWPLYDAIAVAVKAAAKELGVAIVWGGDWTTFKDGPHFELDRSKYGGGSGGGGSGGGSRKKTRKRLKKIGKVLKWI
For B1, in assay [2], the “CAA MIC” value was found to be 4000 µg/mL, the “CAA/HuS MIC” value worked out at 250 µg/mL and the “effect of the structural modification on activity (as assessed by MIC) versus the parent lysin” value is listed as “very strong activity in the presence of human serum”.

B2: GN65: Lysin GN65, used as control (protein)
chain: MAILKIGSKGLEVKNLQTSLNKIGFNLVADGIFGKATDNAVRAVQAGAGLVVDGIAGPKTMYAIRNAGESHQDHLTEADLIDAARELSVDLASIKAVNQVESRGTGFTKSGKIKTLFERHIMYKKLNAKFGQAKANALAQLYPTLVNAKAGGYTGGDAELERLHGAIAIDKDCAYESASYGLFQIMGFNCVICGYDNAEEMFNDFLTGERAQLMAFVKFIKADANLWKALKDKNWAEFARRYNGPAYAQNQYDTKLAAAYKSFS
modifications: (1)..(264) GN316 lysin
With B2, in assay [3], the “HEPES (Log10 CFU/mL), 1 hr” value was found to be 5.7 Log10 CFU/mL; the “HEPES (Log10 CFU/mL), 3 hr” value is below 3.7 Log10 CFU/mL; the “CAA/HuS (Log10 CFU/mL), 1 hr” value turned out to be 6.0 Log10 CFU/mL; the “CAA/HuS (Log10 CFU/mL), 3 hr” value is reported as below 3.7 Log10 CFU/mL.

B3: GN223: lysin-AMP construct: RPP moiety, IGEM linker and amurin peptide Gkh2 C-terminal to GN37 lysin (SEQ ID NO: 12) (protein)
chain: MTYTLSKRSLDNLKGVHPDLVAVVHRAIQLTPVDFAVIEGLRSVSRQKELVAAGASKTMNSRHLTGHAVDLAAYVNGIRWDWPLYDAIAVAVKAAAKELGVAIVWGGDWTTFKDGPHFELDRSKYRPPGGGSGGGGSGGGSSKKASRKSFTKGAVKVHKKNVPTRVPMRGGIRL
As for B3, in assay [2], the “CAA MIC” value is 32000 µg/mL, the “CAA/HuS MIC” value is 2000 µg/mL and the “effect of the structural modification on activity (as assessed by MIC) versus the parent lysin” value is listed as “very strong activity in the presence of human serum”.

B4: GN243: lysin-AMP construct: PP moiety, IGEM linker and TI15 peptide C-terminal to GN37 lysin (SEQ ID NO: 16) (protein)
chain: MTYTLSKRSLDNLKGVHPDLVAVVHRAIQLTPVDFAVIEGLRSVSRQKELVAAGASKTMNSRHLTGHAVDLAAYVNGIRWDWPLYDAIAVAVKAAAKELGVAIVWGGDWTTFKDGPHFELDRSKYRKKTRKRLKKIGKVLKWIPPGGGSGGGGSGGGSTRKRLKKIGKVLKWI
For the molecule B4, in assay [2], the “CAA MIC” value was determined as 32000 µg/mL, the “CAA/HuS MIC” value was 500 µg/mL and the “effect of the structural modification on activity (as assessed by MIC) versus the parent lysin” value is on record as “very strong activity in the presence of human serum”.

B5: GN81: dispersin B, an enzyme that degrades biofilm (SEQ ID NO: 226); control (protein, listed as Actinobacillus pleuropneumoniae)
chain: MDLPKKESGLTLDIARRFYTVDTIKQFIDTIHQAGGTFLHLHFSDHENYALESSYLEQREENATEKNGTYFNPKTNKPFLTYKQLNEIIYYAKERNIEIVPEVDSPNHMTAIFDLLTLKHGKEYVKGLKSPYIAEEIDINNPEAVEVIKTLIGEVIYIFGHSSRHFHIGGDEFSYAVENNHEFIRYVNTLNDFINSKGLITRVWNDGLIKNNLSELNKNIEITYWSYDGDAQAKEDIQYRREIRADLPELLANGFKVLNYNSYYLYFVPKSGSNIHNDGKYAAEDVLNNWTLGKWDGKNSSNHVQNTQNIIGSSLSIWGERSSALNEQTIQQASKNLLKAVIQKTNDPKSH
Consider B5, for which, in assay [3], the “HEPES (Log10 CFU/mL), 1 hr” value came out at 7.4 Log10 CFU/mL; the “HEPES (Log10 CFU/mL), 3 hr” value came out at 6.5 Log10 CFU/mL; the “CAA/HuS (Log10 CFU/mL), 1 hr” value worked out at 6.7 Log10 CFU/mL; the “CAA/HuS (Log10 CFU/mL), 3 hr” value is listed as 7.0 Log10 CFU/mL.

B6: GN328: lysin obtained from Pseudomonas protegens (SEQ ID NO: 220) (protein, listed as Pseudomonas protegens)
chain: MNTLRHGDRSQAVRSLQKNLNSHGAILVVDGDYGDATEAAVRAYQLKAGLVVDGIAGEKTQTSLVGGDCALLLKNADLVSAAQRLDLPLASVYAVNEVESNGKGFFANGKPAILFERHIMYRQLKTPRYPGDDPAELKRHADELAAQYPAIINPNPGGYAGGPAEHQRLATARLIDDTAALESASWGAFQIMGFHWKRLGYASVQDFVTAMSASEPRQFEAFVRFIETDPALHKALKARKWSDFARQYNGPNYQRNLYDTKLQRAYERHSACSCGQEVPA
On to B6, for which the “activity in CAA supplemented with human serum (25%)” value in assay [4] is recorded as “active”. The “CAA MIC” value in assay [4] (CAA) turned out to be 8. The “CAA/HuS MIC” value in assay [4] (CAA supplemented with 25% human serum) amounted to 2.

B7: GN40: lysin obtained from Pseudomonas putida strain PA14H7 (SEQ ID NO: 210) (protein, listed as Micavibrio aeruginosavorus)
chain: MFRPSYILPGVAAVMLLASTAAHAAGYEWKRVDYQYLQSVSEKERGMLRIYKDYEEREPCQNYRELPPEVKYVDCKLYHRVAIPDPPPPPAPPPAPEPPKVVSSYEIFFPLDSTALDLQANAMVDKAAADIALYQPSTVIVAGYTDTSGAADYNDQLSANRAMAVSAALSQRGIPNTAMDLEAHGQNDLKVPTADDVHEPQNRRTVIHFMK
Turning to B7, in assay [3], the “HEPES (Log10 CFU/mL), 1 hr” value is listed as 7.0 Log10 CFU/mL; the “HEPES (Log10 CFU/mL), 3 hr” value stood at 5.7 Log10 CFU/mL; the “CAA/HuS (Log10 CFU/mL), 1 hr” value was 6.6 Log10 CFU/mL; the “CAA/HuS (Log10 CFU/mL), 3 hr” value is reported as 6.7 Log10 CFU/mL.

The record behind these values is patent publication US20210324359A1, “USE OF GRAM-NEGATIVE LYSIN-ANTIMICROBIAL PEPTIDE (AMP) POLYPEPTIDE CONSTRUCTS IN TREATING ENDOCARDITIS” (priority 2020, published 2021).
